The target in one experiment is T1, NA transporter (Rattus norvegicus, UniProt Q9WTR4).
T1 construct: from tissue; host or cells: rat brain (hypothalamus), synaptosomes, P2 fraction
The experiment can be described thus: Noradrenalin (NA) uptake inhibition, synaptosomes from rat brain (hypothalamus). It counts as biochemical. From the text:
b) Method for Determining Noradrenalin and 5-HT Uptake Inhibition:
Synaptosomes from rat brain regions are freshly isolated for in vitro studies, as described in the publication “The isolation of nerve endings from brain” by E. G. Gray and V. P. Whittaker, J. Anatomy 96, pages 79-88, 1962. The corresponding literature description is hereby introduced as a reference and is deemed to be part of the disclosure.
The tissue (hypothalamus for the determination of noradrenalin uptake inhibition and medulla and pons for the determination of 5-HT uptake inhibition) is homogenised in ice-cooled 0.32 M sucrose (100 mg of tissue/1 mL) in a glass homogeniser with Teflon pestle using five complete up and down strokes at 840 revolutions/minute.
The homogenate is centrifuged at 4° C. for 10 minutes at 1000 g. After subsequent centrifugation at 17000 g for 55 minutes, the synaptosomes (P2 fraction) are obtained, which are resuspended in 0.32 M […] (0.5 mL/100 mg of original weight).
The particular uptake is measured in a 96-well microtitre plate. The volume is 250 μL and the incubation proceeds at room temperature (approx. 20-25° C.) under an O2 atmosphere.
The incubation time is 7.5 minutes for [^3H]-NA and 5 minutes for [^3H]-5-HT. The 96 samples are then filtered through a Unifilter GF/B® microtitre plate (Packard) and washed with 200 mL of incubated buffer using a “Brabdel MPXRI-96T Cell-Harvester”. The Unifilter GF/B plate is dried for 1 hour at 55° C. The plate is then sealed with a Back Seal® (Packard) and 35 μL of scintillation fluid are added per well (Ultima Gold®, Packard). After sealing with a top Seal® (Packard) and establishing an equilibrium (around 5 hours), radioactivity is determined in a “Trilux 1450 Microbeta” (Wallac).
The quantity of protein used in the above determination corresponds to the values known from the literature, as for example described in “Protein measurement with the folin phenol reagent”, Lowry et al., J. Biol. Chem., 193, 265-275, 1951.
A detailed description of the method may additionally be found in the literature, for example in M. Ch. Frink, H.-H. Hennies, W. Engelberger, M. Haurand and B. Wilffert (1996) Arzneim.-Forsch./Drug Res. 46 (III), 11, 1029-1036.
The following characteristics were determined for the NA or 5-HT transporter: […]

A further experiment deals with T2, 5-HT transporter (Rattus norvegicus, UniProt P31652).
T2 construct: from tissue; host or cells: rat brain (medulla and pons), synaptosomes, P2 fraction
T2 sequence (P31652 whole entry): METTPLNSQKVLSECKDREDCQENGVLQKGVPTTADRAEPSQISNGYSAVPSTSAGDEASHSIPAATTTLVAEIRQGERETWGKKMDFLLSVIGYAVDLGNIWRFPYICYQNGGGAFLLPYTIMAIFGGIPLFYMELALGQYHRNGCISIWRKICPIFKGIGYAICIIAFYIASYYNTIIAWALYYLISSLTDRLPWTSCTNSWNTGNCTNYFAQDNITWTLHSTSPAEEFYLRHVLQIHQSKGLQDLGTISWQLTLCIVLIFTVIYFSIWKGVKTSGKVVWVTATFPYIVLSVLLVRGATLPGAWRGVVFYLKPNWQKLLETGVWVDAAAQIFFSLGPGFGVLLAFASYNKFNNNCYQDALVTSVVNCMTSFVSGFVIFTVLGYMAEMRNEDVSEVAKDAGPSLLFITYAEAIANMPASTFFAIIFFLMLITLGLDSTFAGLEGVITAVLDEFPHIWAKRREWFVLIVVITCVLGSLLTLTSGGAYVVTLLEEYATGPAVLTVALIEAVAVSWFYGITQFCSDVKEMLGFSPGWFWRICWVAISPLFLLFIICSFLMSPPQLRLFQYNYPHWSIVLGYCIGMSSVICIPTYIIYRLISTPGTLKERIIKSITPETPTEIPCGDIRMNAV
Nature of the experiment: 5-HT uptake inhibition, synaptosomes from rat brain (medulla and pons). It counts as biochemical. A digest of the protocol: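 Freshly isolated rat brain synaptosomes (P2 fraction): hypothalamus for NA uptake, medulla/pons for 5-HT uptake. Uptake of [3H]-NA (7.5 min) or [3H]-5-HT (5 min) at room temperature under O2, stopped by filtration over GF/B. Retained radioactivity counted by scintillation.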

Structures can show the parent of a compound that is named as a salt.

Consider 22 molecules from patent US8048879B2, “Substituted 4,5,6,7-tetrahydro-isoxazolo[4,5-c]pyridine compounds and use thereof for producing medicaments” (Gruenenthal GmbH, priority 2005, dated 2011).

T1 sequence (Q9WTR4 1-597): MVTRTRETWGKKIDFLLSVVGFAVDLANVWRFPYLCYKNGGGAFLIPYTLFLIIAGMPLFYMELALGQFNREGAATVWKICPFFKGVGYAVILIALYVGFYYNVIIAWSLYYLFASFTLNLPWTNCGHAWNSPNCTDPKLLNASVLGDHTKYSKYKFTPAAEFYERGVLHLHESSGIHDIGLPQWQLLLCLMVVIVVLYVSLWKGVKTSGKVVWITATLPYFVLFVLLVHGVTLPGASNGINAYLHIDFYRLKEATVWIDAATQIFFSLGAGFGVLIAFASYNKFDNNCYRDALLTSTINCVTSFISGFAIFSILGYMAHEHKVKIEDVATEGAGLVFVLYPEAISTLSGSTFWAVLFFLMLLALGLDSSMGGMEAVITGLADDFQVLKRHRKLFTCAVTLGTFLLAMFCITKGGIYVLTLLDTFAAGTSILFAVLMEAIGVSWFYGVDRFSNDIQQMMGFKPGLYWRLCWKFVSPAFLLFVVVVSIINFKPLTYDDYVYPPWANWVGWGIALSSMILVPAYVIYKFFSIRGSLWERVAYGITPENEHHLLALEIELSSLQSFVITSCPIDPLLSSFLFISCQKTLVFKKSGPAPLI

For `COc1ccc(CNC(=O)c2noc3c2CN(S(=O)(=O)c2ccccc2)CC3)cc1OC` [Example 47, 5-benzenesulfonyl-4,5,6,7-tetrahydro-isoxazolo[4,5-c]pyridine-3-carboxylic acid 3,4-dimethoxy-benzyl amide], the inhibition (usually the share of the control response that was lost under treatment) at 10 µM against NA transporter was 67%; at 5-HT transporter, 68%. On the same counts, the results for `Cc1cc(C)c(S(=O)(=O)N2CCc3onc(C(=O)N4CCN(CCCN(C)C)CC4)c3C2)c(C)c1` [Example 144, (4-(3-(dimethylamino)propyl)piperazin-1-yl)(5-(mesitylsulfonyl)-4,5,6,7-tetrahydroisoxazolo[4,5-c]pyridin-3-yl)methanone dihydrochloride] are 24% and 21%. The matching figures for `O=C(c1noc2c1CN(S(=O)(=O)c1cccc3ccccc13)CC2)N1CCN(c2nccs2)CC1` [Example 142, (5-(naphthalen-1-ylsulfonyl)-4,5,6,7-tetrahydroisoxazolo[4,5-c]pyridin-3-yl)(4-(thiazol-2-yl)piperazin-1-yl)methanone]: 31% and 30%. On the same counts, the results for `CC(NC(=O)N1CCc2onc(C(=O)NCc3ccccc3)c2C1)c1ccccc1` (stereo not drawn) [Example 150, N^3-benzyl-N^5-(1-phenylethyl)-6,7-dihydroisoxazolo[4,5-c]pyridine-3,5(4H)-dicarboxamide] are 27% and 58%. Take `O=C(c1noc2c1CN(S(=O)(=O)c1ccc3ccccc3c1)CC2)N1CCN(c2nccs2)CC1` [Example 143, (5-(naphthalen-2-ylsulfonyl)-4,5,6,7-tetrahydroisoxazolo[4,5-c]pyridin-3-yl)(4-(thiazol-2-yl)piperazin-1-yl)methanone]: the inhibition at 10 µM came out at 44% at NA transporter and 29% against 5-HT transporter.

As to `CC(NC(=O)N1CCc2onc(C(=O)NCCc3ccccc3)c2C1)c1cccc2ccccc12` (stereo not drawn) [Example 18, 6,7-dihydro-4H-isoxazolo[4,5-c]pyridine-3,5-dicarboxylic acid 5-[(1-naphthalen-1-yl-ethyl) amide]3-(phenethyl amide)], the “NA Uptake (rat), 10 μM, % inhibition” value at NA transporter is given as 47%. Further, the “5-HT uptake (rat), 10 μM, % inhibition” value on 5-HT transporter turned out to be 42%.

With `O=C(c1noc2c1CN(S(=O)(=O)c1ccc(Cl)c(Cl)c1)CC2)N1CCN(c2nccs2)CC1` [Example 140, (5-(3,4-dichlorophenylsulfonyl)-4,5,6,7-tetrahydroisoxazolo[4,5-c]pyridin-3-yl)(4-(thiazol-2-yl)piperazin-1-yl)methanone], the inhibition at 10 µM at NA transporter was 46%; against 5-HT transporter, 47%. As for `CCOc1ccc(NC(=O)N2CCc3onc(C(=O)Nc4ccccc4)c3C2)cc1` [Example 13, 6,7-dihydro-4H-isoxazolo[4,5-c]pyridine-3,5-dicarboxylic acid 5-[(4-ethoxy-phenyl) amide] 3-phenyl amide], the “NA Uptake (rat), 10 μM, % inhibition” value on NA transporter is given as 51%. In addition, at 5-HT transporter, the “5-HT uptake (rat), 10 μM, % inhibition” value turned out to be 48%. `O=C(c1noc2c1CN(S(=O)(=O)c1ccccc1)CC2)N1CCN(CC=Cc2ccccc2)CC1` [Example 97, (5-benzenesulfonyl-4,5,6,7-tetrahydro-isoxazolo[4,5-c]pyridin-3-yl)-[4-(3-phenyl-allyl)-piperazin-1-yl]-methanone]: the inhibition at 10 µM on NA transporter came out at 75%; on 5-HT transporter it was 67%.

Regarding `O=C(c1noc2c1CN(S(=O)(=O)c1ccc(Cl)c(Cl)c1)CC2)N1CCC(CCN2CCCC2)CC1` [Example 147, (5-(3,4-dichlorophenylsulfonyl)-4,5,6,7-tetrahydroisoxazolo[4,5-c]pyridin-3-yl)(4-(2-(pyrrolidin-1-yl)ethyl)piperidin-1-yl)methanone], the inhibition at 10 µM came to 34% on NA transporter and 35% at 5-HT transporter. Take `O=C(c1noc2c1CN(S(=O)(=O)c1cc(Cl)ccc1Cl)CC2)N(CCc1ccccc1)Cc1ccccc1` [Example 59, 5-(2,5-dichloro-benzenesulfonyl)-4,5,6,7-tetrahydro-isoxazolo[4,5-c]pyridine-3-carboxylic acid benzyl-phenethyl amide]: the inhibition at 10 µM on NA transporter is 79%; against 5-HT transporter, 71%. On to `Cc1ccc(NC(=O)N2CCc3onc(C(=O)NCCc4ccccc4)c3C2)cc1[N+](=O)[O-]` [Example 4, 6,7-dihydro-4H-isoxazolo[4,5-c]pyridine-3,5-dicarboxylic acid 5-[(4-methyl-3-nitro-phenyl) amide] 3-(phenethyl amide)], for which, on NA transporter, the “NA Uptake (rat), 10 μM, % inhibition” value is recorded as 57%. Besides, the “5-HT uptake (rat), 10 μM, % inhibition” value at 5-HT transporter is listed as 45%. With `Cc1cc(C)c(S(=O)(=O)N2CCc3onc(C(=O)N4CCC(CCN5CCCC5)CC4)c3C2)c(C)c1` [Example 146, (5-(mesitylsulfonyl)-4,5,6,7-tetrahydroisoxazolo[4,5-c]pyridin-3-yl)(4-(2-(pyrrolidin-1-yl)ethyl)piperidin-1-yl)methanone], the inhibition at 10 µM at NA transporter was determined as 42%; against 5-HT transporter it was 53%. The matching figures for `O=C(O)CC1(CC(=O)N2CCc3onc(C(=O)Nc4ccccc4)c3C2)CCCC1` [Example 28, {1-[2-oxo-2-(3-phenylcarbamoyl-6,7-dihydro-4H-isoxazolo[4,5-c]pyridin-5-yl)-ethyl]-cyclopentyl}acetic acid]: 44% and 55%.

For the molecule `O=C(NCc1ccccc1)c1noc2c1CN(C(=O)NCCc1ccccc1)CC2` [Example 10, 6,7-dihydro-4H-isoxazolo[4,5-c]pyridine-3,5-dicarboxylic acid 3-benzyl amide 5-(phenethyl amide)], the “NA Uptake (rat), 10 μM, % inhibition” value on NA transporter is on record as 42%. The “5-HT uptake (rat), 10 μM, % inhibition” value on 5-HT transporter is 51%.

As to `O=C(c1noc2c1CN(S(=O)(=O)c1ccc3ccccc3c1)CC2)N1CCC(CCN2CCCC2)CC1` [Example 148, (5-(naphthalen-2-ylsulfonyl)-4,5,6,7-tetrahydroisoxazolo[4,5-c]pyridin-3-yl)(4-(2-(pyrrolidin-1-yl)ethyl)piperidin-1-yl)methanone], the inhibition at 10 µM against NA transporter was determined as 49%; against 5-HT transporter, 67%. Turning to `O=C(NCCc1ccccc1)c1noc2c1CN(C(=O)Nc1cccc(F)c1)CC2` [Example 8, 6,7-dihydro-4H-isoxazolo[4,5-c]pyridine-3,5-dicarboxylic acid 5-[(3-fluorophenyl) amide] 3-(phenethyl amide)], the “NA Uptake (rat), 10 μM, % inhibition” value at NA transporter was 66%. Also, the “5-HT uptake (rat), 10 μM, % inhibition” value on 5-HT transporter is given as 54%. With `COc1ccc(NC(=O)N2CCc3onc(C(=O)NCc4ccccc4)c3C2)cc1` [Example 151, N^3-benzyl-N^5-(4-methoxyphenyl)-6,7-dihydroisoxazolo[4,5-c]pyridine-3,5(4H)-dicarboxamide], the values for the inhibition at 10 µM against NA transporter and against 5-HT transporter were 34% and 36%, respectively. On the same counts, the results for `O=C(Nc1ccccc1)c1noc2c1CN(C(=O)c1ccccc1F)CC2` [Example 156, 5-(2-fluorobenzoyl)-N-phenyl-4,5,6,7-tetrahydroisoxazolo[4,5-c]pyridine-3-carboxamide] are 23% and 10%. On the same counts, the results for `Cc1cc(C)c(S(=O)(=O)N2CCc3onc(C(=O)N4CCN(c5nccs5)CC4)c3C2)c(C)c1` [Example 141, (5-(mesitylsulfonyl)-4,5,6,7-tetrahydroisoxazolo[4,5-c]pyridin-3-yl)(4-(thiazol-2-yl)piperazin-1-yl)methanone] are 41% and 58%. The molecule `CN(C)S(=O)(=O)N1CCc2onc(C(=O)N3CCOCC3)c2C1` [Example 49, 3-(morpholine-4-carbonyl)-6,7-dihydro-4H-isoxazolo[4,5-c]pyridine-5-sulfonic acid dimethyl amide] displayed an inhibition at 10 µM against NA transporter of 73%. On the same count and under the same terms, then `CN(C)S(=O)(=O)N1CCc2onc(C(=O)NCCc3ccc(Cl)c(Cl)c3)c2C1` [Example 122, 5-dimethylsulfamoyl-4,5,6,7-tetrahydro-isoxazolo[4,5-c]pyridine-3-carboxylic acid [2-(3,4-dichloro-phenyl)-ethyl] amide], with 63%.
